{"source": "patent US7402691B2", "about": "“Malononitrile compounds and their use as pesticides” (Sumitomo Chemical Company, Limited, priority 2001, dated 2008)", "assay_type_in_all_cases": "in vivo", "key": {"[1]": {"system": "Ctenocephalides felis", "experiment": "Pesticidal test against Ctenocephalides felis, treated filter paper (Test Example 9)", "conditions": "200 mg/m^2 on filter paper (acetone solution), twenty adults, after 24 hours", "description": "Each of the compound 8, 15, 19, 21 and 34 was dissolved in acetone to give a 0.2 ml solution of 0.114% w/w, which was uniformly treated on a filter paper having 3.8cm in diameter, and air-dried. The amount of active ingredient was 200 mg/m^2. The filter paper was filled in a lid of a 200 ml glass bottle. Twenty adult Ctenocephalides felis (cat flea) were released in the glass bottle, which was followed by covering with the lid. The glass bottle was upset for making the fleas contact with the filter paper. After 24 hours, the mortality was examined."}, "[2]": {"system": "Eysarcoris lewisi", "experiment": "Pesticidal test against Eysarcoris lewisi, treated peanut seeds (Test Example 4)", "conditions": "168 h, peanut seeds immersed 1 minute, adults, 7th day after release, read-out: rate of dead or moribund pests", "description": "Then, 3 to 5 seeds of peanut were immersed in the test liquid, which had been prepared as described above, for 1 minute. After the test liquid treated the seeds of peanut was dried with a paper towel, a filter paper moistened with 1 ml of water was placed on a bottom of polyethylene cup and then the seeds of peanut was placed on it. Six to eight adults of Eysarcoris lewisi were set free in the polyethylene cup, which was then kept covered and left in a greenhouse at 25° C. On the 7th day after the release of Eysarcoris lewisi, the number of dead pests and moribund pests was examined."}, "[3]": {"system": "Leptinotarsa decemlineata", "experiment": "Pesticidal test against Leptinotarsa decemlineata, eggplant leaf dip (Test Example 5)", "conditions": "foliar, 120 h, eggplant leaf immersed 1 minute, second-instar larvae, 5th day after release, read-out: rate of dead or moribund pests", "description": "A leaf of eggplant was immersed in the test liquid, which had been prepared as described above, for 1 minute. After the test liquid treated the leaf of eggplant was dried with a paper towel, the leaf of eggplant was placed in a polyethylene cup of 3 cm in diameter. One second-instar larvae of Leptinotarsa decemlineata (Colorado potato beetle) were set free in the polyethylene cup, which was then kept covered and left in a greenhouse at 25° C. This test was done ten times for one compound. On the 5th day after the release of Leptinotarsa decemlineata, the number of dead pests and moribund pests was examined."}, "[4]": {"system": "Musca domestica", "experiment": "Pesticidal test against Musca domestica, filter paper with sucrose bait (Test Example 6)", "conditions": "500 ppm, 0.7 ml on filter paper, ten female adults, after 24 hours, read-out: mortality", "description": "Ten female adults of Musca domestics (house fly) were set free in the polyethylene cup, which was then kept covered. After 24 hours, their survival was examined to determine the mortality."}}}
{"smiles": "N#CC(C#N)(CCC(F)(F)C(F)(F)F)Cc1ccc(C(F)(F)F)cc1", "note": "[Compound 8, 2-(3,3,4,4,4-pentafluorobutyl)-2-(4-(trifluoromethyl)benzyl)malononitrile]", "values": [{"measurement": "mortality at 200 mg/m2", "setting": "[1]", "result": 100, "unit": "%"}, {"measurement": "pest or weed control at 100 ppm", "setting": "[2]", "result": 100, "unit": "%"}, {"measurement": "pest or weed control at 1.6 ppm", "setting": "[3]", "result": "> 80", "unit": "%"}, {"measurement": "mortality at 500 ppm", "setting": "[4]", "result": 100, "unit": "%"}]}
{"smiles": "N#CC(C#N)(CCC(F)(F)F)Cc1ccc(Cl)cc1", "note": "[Compound 15, 2-(4-chlorobenzyl)-2-(3,3,3-trifluoropropyl)malononitrile]", "values": [{"measurement": "mortality at 200 mg/m2", "setting": "[1]", "result": 100, "unit": "%"}, {"measurement": "pest or weed control at 1.6 ppm", "setting": "[3]", "result": "> 80", "unit": "%"}, {"measurement": "mortality at 500 ppm", "setting": "[4]", "result": 100, "unit": "%"}]}
{"smiles": "N#CC(C#N)(CCC(F)(F)F)Cc1ccc(Cl)c(Cl)c1", "note": "[Compound 21, 2-(3,4-dichlorobenzyl)-2-(3,3,3-trifluoropropyl)malononitrile]", "values": [{"measurement": "mortality at 200 mg/m2", "setting": "[1]", "result": 100, "unit": "%"}, {"measurement": "pest or weed control at 100 ppm", "setting": "[2]", "result": 100, "unit": "%"}, {"measurement": "pest or weed control at 1.6 ppm", "setting": "[3]", "result": "> 80", "unit": "%"}, {"measurement": "mortality at 500 ppm", "setting": "[4]", "result": 100, "unit": "%"}]}
{"smiles": "CSc1ccc(CC(C#N)(C#N)CCC(F)(F)F)cc1", "note": "[Compound 34, 2-(4-(methylthio)benzyl)-2-(3,3,3-trifluoropropyl)malononitrile]", "values": [{"measurement": "mortality at 200 mg/m2", "setting": "[1]", "result": 100, "unit": "%"}, {"measurement": "mortality at 500 ppm", "setting": "[4]", "result": 100, "unit": "%"}]}
